The source of these data is US20240174684A1, “INHIBITORS OF cGAS ACTIVITY AS THERAPEUTIC AGENTS” (BELLBROOK LABS, LLC, priority 2021, published 2024).

SMILES strings stand for the structures. Where two headings read alike, the source gives them in different places.

Data set [1] relates to IFNβ production in THP-1 cells. The data set can be described thus: IFNβ ELISA in THP-1 cells. It is filed as cell-based, human. The conditions noted are these: Homo sapiens; THP-1 cells. The text has this: Cellular assays: The human monocyte cell line THP-1 and human primary PBMCs were used to evaluate the cellular activity of compounds with good biochemical potency. These cells produce a robust cGAS/STING-dependent type I IFN response when stimulated with dsDNA and other pathogen-associated molecular patterns, which was detected using a standard ELISA for IFNβ (R&D Systems). The TBK1 inhibitor, BX-795, which acts downstream of cGAS/STING, was used as a probe.
CETSA was also used to confirm that the compounds are binding to cGAS in cells; THP-1 cells are used for this analysis. Compounds were tested in dose response mode by incubating with cells for 1.5 hours at 37° C., followed by pelleting and re-suspending in PBS, heating to 51.5° C. for 3 min and cooling to room temp. Cells were then lysed, debris, including denatured cGAS, was pelleted and the supernatant was analyzed for soluble cGAS by Western Blot using anti-cGAS primary Ab (Cell Signaling). Band intensity was analyzed using Image J software. Stimulation with cGAMP directly activates STING, circumventing cGAS; this was used to determine if compounds had effects on downstream components of cGAS/STING signaling. The IFN-6 ELISA was used as the primary measure of cellular potency and selectivity (Table 3) and used the reporter gene assays for assessing off-target activity with other pattern recognition receptors.
The ICso values for IFNB ELISA stimulated with THP-1, PBMC, DNA, and cGAMP were determined for several exemplary compounds of the invention, and are provided in Table 3 where A represents <1 μM; B represents 1-2.5 μM; C represents 2.5-10 μM; D represents 10-20 μM; and E represents >20 μM.
On the technique in general: ELISA stands for enzyme-linked immunosorbent assay.

Data set [2] concerns the target cGAS (Homo sapiens, UniProt Q8N884). The data set is described as follows: Transcreener cGAS enzymatic assay (FP). Type of data set: biochemical. Here is the method:
Structural, biochemical and biophysical analysis and selectivity profiling: Potency and MOA studies, including Mn^2+ sensitivity, were performed using the Transcreener cGAS enzymatic assay, which is manufactured at BellBrook Labs (Fitchburg, Wisconsin, USA). This homogenous cGAS enzymatic assay was developed with fluorescence polarization (FP) and time-resolved Forster resonance energy transfer (TR-FRET) readouts, as described in International Patent Publication WO 2020/142729, incorporated by reference herein in its entirety. Plates are read on a PHERAstar FSX multimode reader (BMG). The compounds of the disclosure were tested for inhibition of cGAS ([…]) using this cGAS enzymatic assay under standard conditions (100 μM ATP and GTP, 62.5 nM bp ISD, 60 minute reactions), high ATP and GTP (1 mM) to mimic physiological conditions, in the presence of 200 μM MnCl2, and with mouse cGAS under standard conditions.
The IC50 values for FP under standard and under physiological conditions were determined for several exemplary compounds of the invention. The relative activities for FP Standard IC50 are shown in Table 2 below, where A represents <50 nM; B represents 50-100 nM; C represents 100-200 nM; D represents 200 nM-1μM; and E represents 1-10 μM. For the relative activities for FP Physiological IC50, A′ represents <200 nM; B′ represents 200-500 nM; C′ represents 500 nM-1μM; D′ represents 1-5 μM; and E′ represents >5 μM.

Data set [3] relates to MDR1 (P-glycoprotein). The data set is described as follows: MDCK-MDR1 permeability A→B. It is filed as in vitro ADME, Canine. The conditions noted are these: dog; MDCK cells expressing human MDR1, A→B; read-out: MDCK-MDR Permeability A→B. As to the method:
(§1) ADME studies: Compound A and the compounds of the disclosure were tested for aqueous solubility (KSOL), metabolic stability (human and mouse […]) and permeability (Caco-2 and/or MDR1-MDCK cells) to provide an initial indication of oral bioavailability.
(§2) The favorable physicochemical properties are reflected in promising results in in vitro ADME tests. […] Metabolic stability, which was routinely measured with mouse and human hepatocytes, is outstanding, with t, greater than 2 hours for all of the compounds of the disclosure in which it has been measured. Cell permeability was measured using MDCK cells expressing human MDR1 (P-glycoprotein) to assess passive permeability as well as active transport out of the cell. […] Numerous compounds in Table 1 meet these permeability criteria, which is consistent with their design for TPSA <140 Å^2 and increased lipophilicity.
(§3) The MDCK-MDR1 permeability A ->B is shown in Table 2 below, where A represents 5-10 cm/s×10^−6; B represents 1-5 cm/s×10^−6; and C represents <1 cm/ss×10^−6. The metabolic stability half time, in both mouse and human hepatocytes, is also shown in Table 2 below, where A′ represents 100-200 minutes; B′ represents 200-300 minutes; and C′ represents >300 minutes.

The subject of data set [4] is MDCK cells expressing human MDR1 (P-glycoprotein). The data set is described as follows: MDCK-MDR1 permeability A→B. Type of data set: in vitro ADME, Canine. As to the method: as §1, §2, §3
Setting [5] is: high ATP and GTP (1 mM) to mimic physiological conditions, read-out: IC50 FP Physiological.
Where [6] appears, read: standard conditions: 100 μM ATP and GTP, 62.5 nM bp ISD, 60 minute reactions, read-out: IC50 FP Standard.

Sequence of cGAS (Q8N884 whole entry): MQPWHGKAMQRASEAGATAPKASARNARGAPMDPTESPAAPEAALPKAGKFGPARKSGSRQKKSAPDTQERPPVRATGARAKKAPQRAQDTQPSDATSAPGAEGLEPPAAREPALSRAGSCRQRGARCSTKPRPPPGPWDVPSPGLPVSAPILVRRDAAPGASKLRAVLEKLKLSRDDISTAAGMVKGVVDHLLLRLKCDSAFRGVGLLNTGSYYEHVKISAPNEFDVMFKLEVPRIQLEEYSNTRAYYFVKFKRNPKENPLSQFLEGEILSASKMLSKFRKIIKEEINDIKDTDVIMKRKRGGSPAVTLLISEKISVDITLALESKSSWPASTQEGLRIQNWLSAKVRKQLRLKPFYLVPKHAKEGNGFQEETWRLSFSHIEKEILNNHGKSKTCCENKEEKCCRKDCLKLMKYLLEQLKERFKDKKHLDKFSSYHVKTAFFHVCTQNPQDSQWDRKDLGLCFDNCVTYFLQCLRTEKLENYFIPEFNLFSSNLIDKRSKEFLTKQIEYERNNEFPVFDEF

Turning to `Cc1nc(N2C[C@@H](CC(=O)Nc3ccc(Cl)cc3)C[C@H]2C(=O)O)c2oc3ccccc3c2n1` [Compound 21, (28.4R)-4-(2-((4-chlorophenyl)amino)-2-oxoethyl)-1-(2-methylbenzofuro[3,2-d]pyrimidin-4-yl)pyrrolidine-2-carboxylic acid], the figures for the half-inhibitory concentration (IC50) in data set [1], in data set [2] (setting [5]) and in data set [2] (setting [6]) were 10 to 20 µM, 1 to 5 µM and 0.1 to 0.2 µM, respectively. Besides, the Papp A→B in data set [3] was 1 to 5 ×10⁻⁶ cm/s.
In the same order, the values of `COc1cccc(-c2ccc(NC(=O)C[C@H]3C[C@@H](C(=O)O)N(c4nc(C)nc5c4oc4ccccc45)C3)cc2)c1` [Compound 50, (2S,4R)-4-(2-((3′-methoxy-[1,1′-biphenyl]-4-yl)amino)-2-oxoethyl)-1-(2-methylbenzofuro[3,2-d]pyrimidin-4-yl)pyrrolidine-2-carboxylic acid] are below 1 µM, 0.2 to 0.5 µM, below 0.05 µM and 5 to 10 ×10⁻⁶ cm/s.
With `Cc1nc(N2C[C@@H](CC(=O)Nc3ccc(F)cc3)C[C@H]2C(=O)O)c2oc3ccccc3c2n1` [Compound 18, (2S,4R)-4-(2-((4-fluorophenyl)amino)-2-oxoethyl)-1-(2-methylbenzofuro[3,2-d]pyrimidin-4-yl)pyrrolidine-2-carboxylic acid], the IC50 – broadly, the midpoint of a concentration-inhibition curve – was above 20 µM in data set [1], 1 to 5 µM in data set [2] (setting [5]) and 0.2 to 1 µM in data set [2] (setting [6]). Also, the “MDCK-MDR Permeability A→B” value in data set [4] is given as “C (C represents <1 cm/ss×10^−6)”.
In the same order, the values of `Cc1nc(N2C[C@@H](CC(=O)Nc3cccc(N4CCOCC4)c3)C[C@H]2C(=O)O)c2oc3ccccc3c2n1` [Compound 57, (2S,4R)-1-(2-methylbenzofuro[3,2-d]pyrimidin-4-yl)-4-(2-((3-morpholinophenyl)amino)-2-oxoethyl)pyrrolidine-2-carboxylic acid] are above 20 µM, 1 to 5 µM, 0.1 to 0.2 µM and “C (C represents <1 cm/ss×10^−6)”.
Taken in the same sequence, the figures for `COc1ccccc1NC(=O)C[C@H]1C[C@@H](C(=O)O)N(c2nc(C)nc3c2oc2ccccc23)C1` [Compound 14, (28.4R)-4-(2-((2-methoxyphenyl)amino)-2-oxoethyl)-1-(2-methylbenzofuro[3,2-d]pyrimidin-4-yl)pyrrolidine-2-carboxylic acid] were above 20 µM, above 5 µM, 1 to 10 µM and “C (C represents <1 cm/ss×10^−6)”.
For the molecule `Cc1nc(N2C[C@@H](CC(=O)Nc3ccccc3F)C[C@H]2C(=O)O)c2oc3ccccc3c2n1` [Compound 20, (2S,4R)-4-(2-((2-fluorophenyl)amino)-2-oxoethyl)-1-(2-methylbenzofuro[3,2-d]pyrimidin-4-yl)pyrrolidine-2-carboxylic acid], the IC50 in data set [1] is above 20 µM; in data set [2] (setting [5]) it was above 5 µM; in data set [2] (setting [6]), 0.2 to 1 µM. In addition, the Papp A→B in data set [3] fell in the range of 1 to 5 ×10⁻⁶ cm/s.
`Cc1cccc(NC(=O)C[C@H]2C[C@@H](C(=O)O)N(c3nc(C)nc4c3oc3ccccc34)C2)c1` [Compound 16, (28.4R)-1-(2-methylbenzofuro[3,2-d]pyrimidin-4-yl)-4-(2-oxo-2-(m-tolylamino)ethyl)pyrrolidine-2-carboxylic acid]: the concentration for half-maximal inhibition (IC50) was above 20 µM in data set [1], 1 to 5 µM in data set [2] (setting [5]) and 0.2 to 1 µM in data set [2] (setting [6]). The Papp A→B in data set [3] lay within 1 to 5 ×10⁻⁶ cm/s.
Taken in the same sequence, the figures for `Cc1nc(N2C[C@@H](CC(=O)Nc3cccc(C(F)(F)F)c3)C[C@H]2C(=O)O)c2oc3ccccc3c2n1` [Compound 25, (2S,4R)-1-(2-methylbenzofuro[3,2-d]pyrimidin-4-yl)-4-(2-oxo-2-((3-(trifluoromethyl)phenyl)amino)ethyl)pyrrolidine-2-carboxylic acid] were 10 to 20 µM, above 5 µM, 0.2 to 1 µM and 1 to 5 ×10⁻⁶ cm/s.
`Cc1nc(N2C[C@@H](CC(=O)Nc3ccc(-c4cn[nH]c4)cc3)C[C@H]2C(=O)O)c2oc3ccccc3c2n1` [Compound 10, (2S,4R)-4-(2-((4-(1H-pyrazol-4-yl)phenyl)amino)-2-oxoethyl)-1-(2-methylbenzofuro[3,2-d]pyrimidin-4-yl)pyrrolidine-2-carboxylic acid]: the half-inhibitory concentration (IC50) in data set [1] is above 20 µM; in data set [2] (setting [5]), 0.2 to 0.5 µM; in data set [2] (setting [6]) it was below 0.05 µM. The “MDCK-MDR Permeability A→B” value in data set [4] was “C (C represents <1 cm/ss×10^−6)”.
In the same order, the values of `COc1cccc(NC(=O)C[C@H]2C[C@@H](C(=O)O)N(c3nc(C)nc4c3oc3ccccc34)C2)c1` [Compound 13, (2S,4R)-4-(2-((3-methoxyphenyl)amino)-2-oxoethyl)-1-(2-methylbenzofuro[3,2-d]pyrimidin-4-yl)pyrrolidine-2-carboxylic acid] are 10 to 20 µM, 1 to 5 µM, 0.2 to 1 µM and “C (C represents <1 cm/ss×10^−6)”.
On to `Cc1nc(N2C[C@@H](CC(=O)Nc3ccc4cn[nH]c4c3)C[C@H]2C(=O)O)c2oc3ccccc3c2n1` [Compound 30, (28.4R)-4-(2-((1H-indazol-6-yl)amino)-2-oxoethyl)-1-(2-methylbenzofuro[3,2-d]pyrimidin-4-yl)pyrrolidine-2-carboxylic acid], for which the 50% inhibitory concentration (IC50) was above 20 µM in data set [1], 1 to 5 µM in data set [2] (setting [5]) and 0.1 to 0.2 µM in data set [2] (setting [6]). Moreover, the “MDCK-MDR Permeability A→B” value in data set [4] was “C (C represents <1 cm/ss×10^−6)”.
Turning to `Cc1nc(N2C[C@@H](CC(=O)Nc3ccc(Cc4ccccn4)cc3)C[C@H]2C(=O)O)c2oc3ccccc3c2n1` [Compound 56, (2S,4R)-1-(2-methylbenzofuro[3,2-d]pyrimidin-4-yl)-4-(2-oxo-2-((4-(pyridin-2-ylmethyl)phenyl)amino)ethyl)pyrrolidine-2-carboxylic acid], the half-inhibitory concentration (IC50) was above 20 µM in data set [1], 1 to 5 µM in data set [2] (setting [5]) and 0.2 to 1 µM in data set [2] (setting [6]). In addition, the “MDCK-MDR Permeability A→B” value in data set [4] is reported as “C (C represents <1 cm/ss×10^−6)”.
In the same order, the values of `Cc1nc(N2C[C@@H](CC(=O)Nc3cccc(-c4cn[nH]c4)c3)C[C@H]2C(=O)O)c2oc3ccccc3c2n1` [Compound 11, (25,4R)-4-(2-((3-(1H-pyrazol-4-yl)phenyl)amino)-2-oxoethyl)-1-(2-methylbenzofuro[3,2-d]pyrimidin-4-yl)pyrrolidine-2-carboxylic acid] are above 20 µM, 0.2 to 0.5 µM, 0.05 to 0.1 µM and “C (C represents <1 cm/ss×10^−6)”.
Taken in the same sequence, the figures for `Cc1nc(N2C[C@@H](CC(=O)Nc3ccc(N4CCNCC4)cc3)C[C@H]2C(=O)O)c2oc3ccccc3c2n1` [Compound 8, (2S,4R)-1-(2-methylbenzofuro[3,2-d]pyrimidin-4-yl)-4-(2-oxo-2-((4-(piperazin-1-yl)phenyl)amino)ethyl)pyrrolidine-2-carboxylic acid] were above 20 µM, above 5 µM, 1 to 10 µM and “C (C represents <1 cm/ss×10^−6)”.
